Data as given in publication PMC6469167, “Cholecystokinin-2 Receptor Targeting with Novel C-terminally Stabilized HYNIC-Minigastrin Analogs Radiolabeled with Technetium-99m” (Pharmaceuticals, 2019).

Tests used:
[1] = physchem; format: physicochemical
Experimental: The resistance against degradation of [^99mTc]Tc-HYNIC-MGS5 and [^99mTc]Tc-HYNIC-MGS11 (1000 pmol/mL, n = 2) in human serum was studied for up to 24 h. Furthermore, the radiopeptides were incubated in PBS (1000 pmol/mL, n = 1). At each time point of 1, 2, 4 and 24 h after incubation the intact radiopeptide was assessed by analytical HPLC. Serum samples were precipitated with ACN and centrifuged to collect the supernatant and diluted with water prior to radio-HPLC. […] From each phase a 75 µL sample was taken, the radioactivity measured in a 2480 Wizard^2 automatic gamma-counter (PerkinElmer Life Sciences and Analytical Sciences, Wallac Oy, Turku, Finland) and the distribution of the radiopeptides calculated. The protein binding in human serum (500 pmol/mL, n = 2) was assessed by Sephadex G-50 size-exclusion chromatography (GE Healthcare Illustra, Little Chalfont, UK) for up to 24 h.

[2] = tested on: A431-CCK2R and A431-mock tumor-xenografts; design: species or system athymic BALB/c nude mice; conditions: mouse, in vivo
Experimental: Biodistribution studies evaluating the tumor uptake of [^99mTc]Tc-HYNIC-MGS5 and [^99mTc]Tc-HYNIC-MGS11 were performed in 7 week-old female athymic BALB/c nude mice (Charles River, Sulzfeld, Germany). To induce tumor-xenografts, mice were injected subcutaneously with 2 × 10^6 A431-CCK2R (right flank) and A431-mock cells (left flank). The tumor-xenografts were allowed to grow for 11–12 days reaching medium tumor weights of ~0.2 g. Mice were randomly divided into groups of four and injected intravenously via a lateral tail vein with 0.3 MBq of the ^99mTc-labeled HYNIC-analogs (corresponding to ~15 pmol total peptide). The groups of animals were sacrificed at 1 h and 4 h p.i., tumors and other tissues (blood, lung, heart, muscle, bone, spleen, intestine, liver, kidney, stomach and pancreas) were removed, weighed, and the radioactivity measured together with a standard in the gamma counter. Results were expressed as percentage of injected activity per gram tissue (% IA/g) and tumor-to-organ activity ratios were calculated for selected tissues. […] The radioactivity in selected organs (stomach, pancreas, liver, kidneys, A431-CCK2R and A431-mock xenograft) was additionally visualized by autoradiography using a phosphorimager (Cyclone Plus, PerkinElmer Life Sciences and Analytical Sciences, Downers Grove, Il, USA). […]

Structure (SMILES)	logD [1]	tumor-to-kidney ratio [2]
CCCC[C@@H](C(=O)N[C@@H](CC(=O)O)C(=O)N[C@@H](Cc1cccc2ccccc12)C(N)=O)N(C)C(=O)[C@H](Cc1c[nH]c2ccccc12)NC(=O)CNC(=O)[C@H](Cc1ccc(O)cc1)NC(=O)[C@H](C)NC(=O)[C@@H](CCC(=O)O)NC(=O)c1ccc(NN)nc1 [[^99mTc]Tc-HYNIC-MGS5, metal not drawn]	-2.91 ± 0.06	2.4–3.3
CCCC[C@@H](C(=O)N[C@@H](CC(=O)O)C(=O)N(C)[C@@H](Cc1cccc2ccccc12)C(N)=O)N(C)C(=O)[C@H](Cc1c[nH]c2ccccc12)NC(=O)CNC(=O)[C@H](Cc1ccc(O)cc1)NC(=O)[C@H](C)NC(=O)[C@@H](CCC(=O)O)NC(=O)c1ccc(NN)nc1 [[^99mTc]Tc-HYNIC-MGS11, metal not drawn]	-2.84 ± 0.08	2.0–2.6
